IC50 and EC50 data for six compounds are collected here from paper PMC5799184, “Gs- versus Golf-dependent functional selectivity mediated by the dopamine D1 receptor” (Nature Communications, 2018).

The target in assay [1] is T1, D1R-Rluc with Golf-Venus (D1L_GolfV) (Homo sapiens, UniProt P21728).
T1 construct: gene DRD1; D1R with N-terminal signal peptide and Flag or Myc tag, fused to Renilla luciferase 8; Gαolf with inserted Venus; G protein chaperone Ric8B co-transfected, untagged Gβ2 and Gγ7 available; HEK-293T cells
T1 sequence (P21728 whole entry, the tested form may be a part): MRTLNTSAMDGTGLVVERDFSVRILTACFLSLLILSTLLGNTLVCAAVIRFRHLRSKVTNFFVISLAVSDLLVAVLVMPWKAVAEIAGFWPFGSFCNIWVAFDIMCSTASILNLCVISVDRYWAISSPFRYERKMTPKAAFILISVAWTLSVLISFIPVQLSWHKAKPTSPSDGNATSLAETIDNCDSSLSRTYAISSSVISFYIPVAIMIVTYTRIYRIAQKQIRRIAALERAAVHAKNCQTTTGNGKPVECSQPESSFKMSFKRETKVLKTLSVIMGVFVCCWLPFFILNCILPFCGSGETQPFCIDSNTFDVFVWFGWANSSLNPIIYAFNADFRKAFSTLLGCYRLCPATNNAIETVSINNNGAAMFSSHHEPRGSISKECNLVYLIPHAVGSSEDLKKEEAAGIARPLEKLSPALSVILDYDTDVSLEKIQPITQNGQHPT
T1 sequence (P38405 2-381 partner): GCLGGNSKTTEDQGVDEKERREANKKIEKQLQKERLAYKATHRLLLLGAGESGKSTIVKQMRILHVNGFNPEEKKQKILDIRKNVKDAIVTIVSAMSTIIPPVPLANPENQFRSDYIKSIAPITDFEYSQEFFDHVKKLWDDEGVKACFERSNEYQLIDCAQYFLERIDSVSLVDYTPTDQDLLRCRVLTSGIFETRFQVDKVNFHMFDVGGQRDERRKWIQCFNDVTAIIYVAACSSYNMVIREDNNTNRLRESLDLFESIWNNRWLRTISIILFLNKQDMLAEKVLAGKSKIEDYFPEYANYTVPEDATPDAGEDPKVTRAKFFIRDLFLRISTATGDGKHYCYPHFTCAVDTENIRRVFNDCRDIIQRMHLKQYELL
The assay can be described thus: BRET receptor-Gα engagement, D1R-Rluc / Golf-Venus. It is filed as cell-based. The settings on record: antagonist against […] SKF81297; HEK-293T cells.

For assay [2], the target named is T2, D1R-Rluc with β-arrestin-2-Venus (Homo sapiens, UniProt P21728).
T2 construct: gene DRD1; D1R with N-terminal signal peptide and Flag or Myc tag, fused to Renilla luciferase 8; GRK2 co-transfected; HEK-293T cells; with Beta-arrestin-2
T2 sequence (P21728 whole entry, the tested form may be a part): as the sequence (P21728 whole entry, the tested form may be a part) above
T2 sequence (P32121 whole entry partner, the tested form may be a part): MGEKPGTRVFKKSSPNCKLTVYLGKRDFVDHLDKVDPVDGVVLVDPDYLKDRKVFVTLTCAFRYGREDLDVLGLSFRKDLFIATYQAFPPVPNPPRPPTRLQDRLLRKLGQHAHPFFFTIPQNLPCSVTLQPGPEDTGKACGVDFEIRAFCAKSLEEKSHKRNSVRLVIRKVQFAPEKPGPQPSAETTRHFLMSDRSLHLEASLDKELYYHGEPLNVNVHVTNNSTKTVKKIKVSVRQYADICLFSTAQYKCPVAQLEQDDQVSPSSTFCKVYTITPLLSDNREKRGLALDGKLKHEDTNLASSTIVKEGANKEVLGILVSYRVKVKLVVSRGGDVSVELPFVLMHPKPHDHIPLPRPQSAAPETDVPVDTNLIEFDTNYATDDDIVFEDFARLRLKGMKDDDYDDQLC
The format is cell-based. The settings on record: agonist; GRK2 co-transfected; HEK-293T cells.

The target of a further assay is T3, D3R, Go activation (Homo sapiens, UniProt P35462).
T3 construct: gene DRD3; N-terminal signal peptide and Flag or Myc tag; co-transfected GαoA91-Rluc, Gγ2-GFP10 and untagged Gβ2; HEK-293T cells
T3 sequence (P35462 whole entry): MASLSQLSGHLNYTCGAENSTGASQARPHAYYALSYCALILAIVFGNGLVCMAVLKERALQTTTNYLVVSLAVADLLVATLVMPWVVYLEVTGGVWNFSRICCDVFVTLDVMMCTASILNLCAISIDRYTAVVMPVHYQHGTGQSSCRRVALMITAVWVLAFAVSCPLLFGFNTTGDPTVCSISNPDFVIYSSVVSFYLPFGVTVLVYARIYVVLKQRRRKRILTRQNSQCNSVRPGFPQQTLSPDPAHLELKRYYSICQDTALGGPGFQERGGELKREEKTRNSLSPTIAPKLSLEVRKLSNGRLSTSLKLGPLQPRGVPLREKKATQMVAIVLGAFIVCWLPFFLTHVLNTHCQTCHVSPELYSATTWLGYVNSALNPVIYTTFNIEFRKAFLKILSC
T3 sequence (P09471 2-354 partner): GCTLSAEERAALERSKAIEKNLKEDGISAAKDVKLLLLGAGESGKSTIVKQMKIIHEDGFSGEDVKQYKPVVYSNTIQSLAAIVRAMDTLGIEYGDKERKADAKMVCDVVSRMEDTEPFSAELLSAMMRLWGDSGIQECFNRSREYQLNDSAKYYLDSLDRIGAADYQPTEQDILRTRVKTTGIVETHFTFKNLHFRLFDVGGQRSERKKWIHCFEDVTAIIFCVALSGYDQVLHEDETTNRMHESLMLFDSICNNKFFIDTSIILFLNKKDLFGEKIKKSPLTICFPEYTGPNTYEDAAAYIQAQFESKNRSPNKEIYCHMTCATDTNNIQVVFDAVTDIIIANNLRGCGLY
The experiment in a line: BRET Go activation (GαoA-Rluc / γ2-GFP10). It is filed as cell-based. Particulars: partial agonist; HEK-293T cells.

Assay [3] deals with T4, D2R (D2SR), Go activation (Homo sapiens, UniProt P14416).
T4 construct: gene DRD2
T4 sequence (P14416 1-414 isoform P14416-2): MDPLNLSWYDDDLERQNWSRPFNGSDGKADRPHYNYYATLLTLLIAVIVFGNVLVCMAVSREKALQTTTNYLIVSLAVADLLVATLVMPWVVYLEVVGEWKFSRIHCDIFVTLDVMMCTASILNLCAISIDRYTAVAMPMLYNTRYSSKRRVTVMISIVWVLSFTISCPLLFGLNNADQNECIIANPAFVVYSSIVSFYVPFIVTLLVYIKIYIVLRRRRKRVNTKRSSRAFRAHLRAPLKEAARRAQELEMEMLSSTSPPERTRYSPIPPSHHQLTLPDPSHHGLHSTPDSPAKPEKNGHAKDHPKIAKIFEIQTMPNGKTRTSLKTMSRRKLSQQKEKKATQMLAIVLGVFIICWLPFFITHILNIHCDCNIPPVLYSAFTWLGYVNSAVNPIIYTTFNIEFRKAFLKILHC
T4 sequence (P09471 2-354 partner): as the sequence (P09471 2-354 partner) above
Particulars: partial agonist; HEK-293T cells.

For the compound `CN1CCc2cc(Cl)c(O)cc2[C@@H](c2ccccc2)C1` [SCH23390], in assay [1], the IC50 entry was “Dose-response curves of BRET between D1R-Rluc and Golf-Venus (same color scheme)”. Regarding `Oc1cc2c(cc1O)C1c3ccccc3CNC1CC2` (centres unmarked) [DHX], the EC50 result is “DHX and NPA behaved similarly to Gs engagement in terms of efficacy and potency” in assay [2]; “less efficacious at D2R and D3R-mediated Go activation than at D1R-mediated Gs activation” on D3R, Go activation; “less efficacious at D2R and D3R-mediated Go activation than at D1R-mediated Gs activation” in assay [3]. As to `C=CCN1CCc2c(cc(O)c(O)c2Cl)C(c2ccccc2)C1` (centres unmarked) [SKF82958], in assay [2], the EC50 result is “A77636 and SKF82958 maintained their high potencies and efficacies in the β-arrestin-2 recruitment assay”. The same measure, in the same setting: the value for `CCCN1CCc2cccc3c2[C@H]1Cc1ccc(O)c(O)c1-3` [NPA] was “DHX and NPA behaved similarly to Gs engagement in terms of efficacy and potency”. On the same count and under the same terms, under `Oc1cc2c(cc1O)C(c1ccccc1)CNCC2` (centres unmarked) [SKF38393] stands “SKF81297 and SKF38393 showed reduced and minimal β-arrestin-2 recruitment, respectively”; under `NC[C@@H]1O[C@H](C23CC4CC(CC(C4)C2)C3)Cc2c1ccc(O)c2O` [A77636], “A77636 and SKF82958 maintained their high potencies and efficacies in the β-arrestin-2 recruitment assay”.
